Measurements as given in US20090209606A1 (priority 2004, published 2009).
Like-named read-outs stand apart in the source and are kept apart here. Residues, ends and D or L forms follow the SMILES beside them. *: point of attachment. Cbz = O=C(OCc1ccccc1)*; CH2F = FC*

How the values were obtained:
PARP in SU-DHL-1 cells = assay type: cell-based
SU-DHL-1 cells [1] = assay: Cell cycle analysis (propidium iodide, FACS); conditions: SU-DHL-1, eight hours, equitoxic concentrations (bendamustine 50 μM)
SU-DHL-1 cells [2] = assay type: cell-based
SU-DHL-1 cells [3] = assay type: cell-based; remark: listed apart in the source
SU-DHL-1 cells [4] = assay: cells; assay type: cell-based; conditions: Homo sapiens
SU-DHL-1 cells [5] = assay type: cell-based; remark: listed apart in the source
[6] = tested on: MCF-7/ADR cells and p53 deficient RK0-E6 colon adenocarcinoma cells; assay type: cell-based
[7] = tested on: alkylguanyl transferase (AGT) in SU-DHL-1 cells
[8] = tested on: relapsed indolent or transformed rituximab-refractory B-cell NHL; assay: Phase II multicenter trial; assay type: in vivo, human
Source text: This study evaluated the efficacy and toxicity of bendamustine in patients with NHL who have relapsed or are refractory to previous chemotherapy regimens. Patients refractory to rituximab had disease progression within 6 months of treatment.
Methods: This Phase II multicenter trial enrolled patients with relapsed indolent or transformed rituximab-refractory B-cell NHL from 17 sites in the US and Canada. […] Median age of patients was 63 years (range: 38-84) and 88% had Stage III/IV disease. Patients received bendamustine 120 mg/m^2 IV over 30-60 minutes, days 1 and 2, every 21 days for up to 6 cycles. Response was measured using the International Working Group criteria.

gamma-H2AX histone = assay: H2AX foci formation (immunofluorescence); conditions: 50 μM
Method: Cell were grown on Lab-Tek chamber slides (Nalge Nunc Intl., Naperville, Ill.) in RPMI 1640 media supplemented with 10% FBS. […] The cells were incubated for 30 minutes at 37° C. and then washed two times with PBS. They were incubated for an additional 4 hours at 37° C. The cells were then washed twice with 1×PBS and incubated 10 minutes in −20° C. 100% methanol to fix the cells. They were then washed three times for five minutes each with 1×PBS. They were incubated at room temperature for 1 hour in blocking buffer (10% FBS in 1×PBS, 1% BSA). The slides were incubated at 4° C. with rocking overnight with the primary polyclonal anti-H2AX antibody (R & D Systems, Minneapolis, Minn.). The antibody was diluted in blocking buffer at a ratio of 1:10,000. Slides were washed three times with 1×PBS and incubated with Alexa Flour 488 goat anti-rabbit secondary antibody (1:4000) (Molecular Probes, Eugene, Oreg.) for 45 minutes at room temperature with gentle shaking. Slides were washed three times with 1×PBS and then the chambers removed and SlowFade Light Antifade with DAPI (Molecular Probes) was added to the cells and coverslips sealed on the slides. Analysis was performed using a motorized Zeiss AxioPlan 2e imaging microscope with DIC optics and fluorescence, a Zeiss AxioCam HRm camera and Zeiss Axiovision software Version 4.2.

[9] = tested on: Ape-1 base excision repair enzyme; assay type: cell-based
[10] = tested on: 60 human tumor cell lines
[11] = SU-DHL-1, 72 h, read-out: Ave IC50
[12] = SU-DHL-1, 72 h, read-out: Ave IC90

Q: Which results are given for `O=C(O)CCCc1ccc(N(CCCl)CCCl)cc1` [Chlorambucil, chlorambucil]?
A: PARP cleavage (PARP in SU-DHL-1 cells): No PARP cleavage; S-phase distribution increase (SU-DHL-1 cells [1]): approximately 20%; loss of viability after brief exposure and wash-out (SU-DHL-1 cells [2]): minimal loss of viability; PLK-1 and Aurora A kinase (AurkA) expression (SU-DHL-1 cells [3]): No changes; down-regulation of mRNA expression of PLK-1, Aurora Kinases A and B, cyclin B1 (SU-DHL-1 cells [3]): minor effect; induction of p21 and NOXA mRNA (SU-DHL-1 cells [3]): much lower extent; up-regulation of Exo1 expression (SU-DHL-1 cells [3]): 1.8 fold; IC50 (SU-DHL-1 cells [4]; [11]): 3.4 µM; IC90 (SU-DHL-1 cells [4]; [12]): 6.2 µM; IC90 (SU-DHL-1 cells [4]; SU-DHL-1, read-out: IC90 concentration): 5 µM; IC50 (SU-DHL-1 cells [4]; SU-DHL-1, read-out: equitoxic (IC50) concentrations): 4 µM; PARP protein expression (SU-DHL-1 cells [5]): no changes; expression of total p53 (SU-DHL-1 cells [5]): small increase; up-regulation of Ser-15-phosphorylated p53 (SU-DHL-1 cells [5]): no changes

Q: With `COC(=O)C[C@H](NC(=O)[C@H](C)NC(=O)[C@@H](NC(=O)OCc1ccccc1)C(C)C)C(=O)CF` [zVAD-fmk] (Cbz-Val-Ala-Asp(OMe)-CH2F) as the compound, how does the “bendamustine-induced increases in Annexin-V-positive cells” value [6] read?
A: The value was “able to inhibit”.

Q: How did the “effect of O6-benzylguanine on cytotoxic potency” value [7] turn out when `O=NN(CCCl)C(=O)NCCCl` [carmustine] was run?
A: The value was “significantly sensitizes”.

Q: Which results are given for `Cl.Cn1c(CCCC(=O)O)nc2cc(N(CCCl)CCCl)ccc21` [Bendamustine, 4-{5-[bis(2-chloroethyl)amino]-1-methyl-2-benzimidazolyl} butyric acid hydrochloride]?
A: objective response ([8]; 15 patients refractory to prior alkylator treatment): 67%; complete response ([8]; ITT population): 25%; disease progression ([8]; ITT population): 14%; partial response ([8]; ITT population): 49%; stable disease ([8]; ITT population): 12%; overall objective response rate (ORR) ([8]; ITT population, 120 mg/m^2 IV days 1 and 2 every 21 days): 74%; median duration of response ([8]; all patients): 6.6 months; median duration of response ([8]; indolent patients): 9.3 months; toxicity ([8]; single agent, heavily pretreated patients): acceptable toxicity; median duration of response ([8]; transformed patients): 2.4 months; PARP cleavage (PARP in SU-DHL-1 cells): Maximal PARP cleavage; time to detectable intranuclear H2AX foci (gamma-H2AX histone): ≤ 30 min; S-phase distribution increase (SU-DHL-1 cells [1]): over 40%; loss of viability after brief exposure and wash-out (SU-DHL-1 cells [2]): extensive loss of viability; Fen1 mRNA regulation (SU-DHL-1 cells [3]): upregulated; PLK-1 and Aurora A kinase (AurkA) expression (SU-DHL-1 cells [3]): down-regulated; down-regulation of mRNA expression of PLK-1, Aurora Kinases A and B, cyclin B1 (SU-DHL-1 cells [3]): 60 to 80%; induction of p21 and NOXA mRNA (SU-DHL-1 cells [3]): induced; up-regulation of Exo1 expression (SU-DHL-1 cells [3]): 2.5 fold; IC50 (SU-DHL-1 cells [4]; [11]): 33.2 µM; IC90 (SU-DHL-1 cells [4]; [12]): 56.3 µM; IC50 (SU-DHL-1 cells [4]; SU-DHL-1, read-out: IC50 concentration): 25 µM; effect of O6-benzylguanine on cytotoxic potency [7]: not enhanced; change of IC50 with methoxyamine addition [9]: reduced approximately four-fold; micronucleation (nuclear morphology, DAPI) ([6]; 50 μM, alone or with 20 μM zVAD-fmk, two or three days): increased incidence of micronucleation; PARP protein expression (SU-DHL-1 cells [5]): dramatic reduction; expression of total p53 (SU-DHL-1 cells [5]): strong increase; protein expression of Bax (SU-DHL-1 cells [5]): increase; up-regulation of Ser-15-phosphorylated p53 (SU-DHL-1 cells [5]): 8 fold

Q: For `CN(C)/N=N/c1[nH]cnc1C(N)=O` [DTIC, Dacarbazine, Dacarbazine], which “Correlation (PCC) with bendamustine, LC50” value [10] is on record?
A: Its value is 0.792 (LC50).

Q: With `N[C@@H](Cc1ccc(N(CCCl)CCCl)cc1)C(=O)O` [melphalan] as the compound, how does the PARP cleavage (PARP in SU-DHL-1 cells) read?
A: Its PARP cleavage is “No PARP cleavage”.

Q: And the “loss of viability after brief exposure and wash-out” value (SU-DHL-1 cells [2])?
A: The value was “minimal loss of viability”.

Q: Which results are given for `O=P1(N(CCCl)CCCl)NCCCO1` (centres unmarked) [cyclophosphamide]?
A: S-phase distribution increase (SU-DHL-1 cells [1]): ~15%; effect of O6-benzylguanine on cytotoxic potency [7]: Opposite results
